Assay results taken from patent EP2818471A1, “Nitrogen bicyclic compounds as inhibitors for Scyl1 and Grk5” (Max-Planck-Gesellschaft zur Förderung der Wissenschaften …, priority 2013, dated 2014).

Tested on: beta-TC6 cells
Experiment: Insulin HTRF assay, relative activity Ar normalized to sunitinib
Type: cell-based
Conditions: Mus musculus, normalized to positive control sunitinib (5 µM = 100%), Table 10
From the text: For further screening of compounds derived from compounds described above for their ability to regulate insulin release an insulin HTRF® (Homogeneous Time-Resolved Fluorescence; Cisbio International, France) was used. This assay is based on two antibodies against insulin binding to different epitopes of insulin. One of these antibodies is coupled to Europium (Ab-Eu-Cryptate) and the other one to the fluorophore XL665 (Ab-XL665). Is insulin secreted into the supernatant of cell culture both antibodies can bind to insulin and come therefore into close proximity which allows upon excitation that energy transfer between (FRET) the long-life fluorescent donor Europium (cryptate) and the acceptors XL665. FRET increases proportionally with insulin concentration.
The automated assay protocol is as follows: • On day 1 15k beta-TC6 cells per well were seeded for 24 or 48 h in 50 µl complete medium. On day 2 or respective on day 3 the medium is removed and cells are washed with 60 µl 1xPBS and 20 µl induction buffer is added using BioTek washer. Subsequently, 10 µl Sunitininb (5 µM f.c.) or the test compound in induction buffer; 0.5% f.c. DMSO (CyBi-well) is transferred to the cells. The cells are then incubated at 37°C for 2, 3, 4h.
The HTRF assay is carried out using Greiner 384-well 784075 assay plates. First 10 µl supernatant is transferred from the cell plates in HTRF plates (CyBi-well). 10 µl of 0, 1, 2, and 4 ng/ml Insulin standard controls in assay medium is used as a control. To each well 10 µl of combined 1:25 Ab-XL665 (Acc) and 1:20 Ab-Eu-Cryptate (WellMate) are added and incubated for 120 min at RT in the dark. Finally HTRF is measured on ViewLux ultra high throughput microplate imager (PerkinElmer).
The evaluation software DataFactoty derives relative activities Ar according to the following equation: Ar = (V-R(0%control))/(R(100%control) -R(0%control)) × 100 [formula] […]
The activity of the compounds was classified according to their Ar (relative activity) into the following ranges: Ar ≥ 100% + + + +; 50% ≤ Ar < 100% + + +; 20% ≤ Ar < 50% + +; 10% < Ar < 20% + [formula] Table 10. Ar (relative activity) values of inventive compounds

Q: Which Emax does the source give for `Clc1ccccc1-c1ccc2ncc(-c3cccs3)n2n1` [compound 158, 6-(2-chlorophenyl)-3-(2-thienyl)imidazo[1,2-b]pyridazine] here?
A: 10 to 20%

Q: For `CS(=O)(=O)Nc1cccc(-c2cnc3ccc(Cc4ccc(F)cc4)nn23)c1` [compound 159, N-[3-[6-[(4-fluorophenyl)methyl]imidazo[1,2-b]pyridazin-3-yl]phenyl]methanesulfonamide], which Emax is on record?
A: 10 to 20%

Q: Which Emax does the source give for `Nc1ccc(-c2cnc3ccc(Cc4ccccc4)nn23)cn1` [compound 161, 5-(6-benzylimidazo[1,2-b]pyridazin-3-yl)pyridin-2-amine] here?
A: 20 to 50%

Q: How did the Emax turn out when `CN(C)/C(=C1\N=C(c2ccccc2)OC1=O)c1cnc2cccnn12` [compound 162, (4Z)-4-[dimethylamino(imidazo[1,2-b]pyridazin-3-yl)methylene]-2-phenyl-oxazol-5-one] was run?
A: 10 to 20%

Q: For `c1ccc(-c2nnc3ccc(-c4ccc5c(c4)OCO5)cn23)cc1` [compound 164, 6-(1,3-benzodioxol-5-yl)-3-phenyl-[1,2,4]triazolo[4,3-a]pyridine], which Emax is on record?
A: 50 to 100%

Q: With `CC(=O)Nc1cccc(-c2ccc3nnc(-c4ccccc4)n3c2)c1` [compound 165, N-[3-(3-phenyl-[1,2,4]triazolo[4,3-a]pyridin-6-yl)phenyl]acetamide] as the compound, how does the Emax read?
A: 50 to 100%

Q: Which Emax does the source give for `COc1ccc(-c2ccc3nnc(-c4ccccc4)n3c2)c(C)c1` [compound 166, 6-(4-methoxy-2-methyl-phenyl)-3-phenyl-[1,2,4]triazolo[4,3-a]pyridine] here?
A: ≥ 100%

Q: How did the Emax turn out when `C(#Cc1ccccn1)c1ccc2nnc(-c3ccccc3)n2c1` [compound 167, 3-phenyl-6-[2-(2-pyridyl)ethynyl]-[1,2,4]triazolo[4,3-a]pyridine] was run?
A: 50 to 100%

Q: How did the Emax turn out when `CN(C)CC#Cc1ccc2nnc(-c3ccccc3)n2c1` [compound 168, N,N-dimethyl-3-(3-phenyl-[1,2,4]triazolo[4,3-a]pyridin-6-yl)prop-2-yn-1-amine] was run?
A: 10 to 20%

Q: How did the Emax turn out when `CS(=O)(=O)Nc1cccc(-c2ccc3nnc(-c4ccccc4)n3c2)c1` [compound 169, N-[3-(3-phenyl-[1,2,4]triazolo[4,3-a]pyridin-6-yl)phenyl]methanesulfonamide] was run?
A: 50 to 100%

Q: `Clc1cccc(-c2ccc3nnc(-c4ccc5c(c4)OCO5)n3c2)c1` [compound 170, 3-(1,3-benzodioxol-5-yl)-6-(3-chlorophenyl)-[1,2,4]triazolo[4,3-a]pyridine] was tested. Which Emax did it give?
A: 20 to 50%

Q: Which Emax does the source give for `c1cc(-c2ccc3nnc(-c4ccc5c(c4)OCO5)n3c2)co1` [compound 171, 3-(1,3-benzodioxol-5-yl)-6-(3-furyl)-[1,2,4]triazolo[4,3-a]pyridine] here?
A: 50 to 100%

Q: For `Cn1cncc1C#Cc1ccc2nnc(-c3ccc4c(c3)OCO4)n2c1` [compound 172, 3-(1,3-benzodioxol-5-yl)-6-[2-(3-methylimidazol-4-yl)ethynyl]-[1,2,4]triazolo[4,3-a]pyridine], which Emax is on record?
A: 20 to 50%

Q: Which Emax does the source give for `OCC#Cc1ccc2nnc(-c3ccc4c(c3)OCO4)n2c1` [compound 173, 3-[3-(1,3-benzodioxol-5-yl)-[1,2,4]triazolo[4,3-a]pyridin-6-yl]prop-2-yn-1-ol] here?
A: 20 to 50%

Q: For `Cn1cc(-c2ccc3nnc(-c4ccc5c(c4)OCO5)n3c2)cn1` [compound 174, 3-(1,3-benzodioxol-5-yl)-6-(1-methylpyrazol-4-yl)-[1,2,4]triazolo[4,3-a]pyridine], which Emax is on record?
A: 50 to 100%

Q: `CNC(=O)c1cccc(-c2ccc3nnc(-c4ccc5c(c4)OCO5)n3c2)c1` [compound 175, 3-[3-(1,3-benzodioxol-5-yl)-[1,2,4]triazolo[4,3-a]pyridin-6-yl]-N-methyl-benzamide] was tested. Which Emax did it give?
A: 20 to 50%

Q: With `c1cc(-c2nnc3ccc(-c4ccc(N5CCOCC5)cc4)cn23)ccn1` [compound 176, 4-[4-[3-(4-pyridyl)-[1,2,4]triazolo[4,3-a]pyridin-6-yl]phenyl]morpholine] as the compound, how does the Emax read?
A: 20 to 50%

Q: With `COc1ccc(-c2ccc3nnc(-c4ccncc4)n3c2)cc1OC` [compound 177, 6-(3,4-dimethoxyphenyl)-3-(4-pyridyl)-[1,2,4]triazolo[4,3-a]pyridine] as the compound, how does the Emax read?
A: 20 to 50%

Q: `FC(F)(F)Oc1cccc(-c2ccc3nnc(-c4ccncc4)n3c2)c1` [compound 178, 3-(4-pyridyl)-6-[3-(trifluoromethoxy)phenyl]-[1,2,4]triazolo[4,3-a]pyridine] was tested. Which Emax did it give?
A: 20 to 50%

Q: With `OCc1ccc(-c2ccc3nnc(-c4ccncc4)n3c2)cc1` [compound 179, [4-[3-(4-pyridyl)-[1,2,4]triazolo[4,3-a]pyridin-6-yl]phenyl]methanol] as the compound, how does the Emax read?
A: 20 to 50%

Q: Which Emax does the source give for `FC(F)(F)c1cccc(C#Cc2ccc3nnc(-c4ccncc4)n3c2)c1` [compound 180, 3-(4-pyridyl)-6-[2-[3-(trifluoromethyl)phenyl]ethynyl]-[1,2,4]triazolo[4,3-a]pyridine] here?
A: 10 to 20%

Q: Which Emax does the source give for `c1ccc(Oc2cccc(-c3ccc4nnc(-c5ccncc5)n4c3)c2)cc1` [compound 181, 6-(3-phenoxyphenyl)-3-(4-pyridyl)-[1,2,4]triazolo[4,3-a]pyridine] here?
A: 20 to 50%

Q: With `CN(C)c1ccc(-c2ccc3nnc(-c4cccnc4)n3c2)cc1` [compound 182, N,N-dimethyl-4-[3-(3-pyridyl)-[1,2,4]triazolo[4,3-a]pyridin-6-yl]aniline] as the compound, how does the Emax read?
A: 50 to 100%

Q: `CC(C)c1cccc(-c2ccc3nnc(-c4cccnc4)n3c2)c1` [compound 183, 6-(3-isopropylphenyl)-3-(3-pyridyl)-[1,2,4]triazolo[4,3-a]pyridine] was tested. Which Emax did it give?
A: 50 to 100%

Q: How did the Emax turn out when `Clc1ccccc1-c1ccc2nnc(-c3cccnc3)n2c1` [compound 184, 6-(2-chlorophenyl)-3-(3-pyridyl)-[1,2,4]triazolo[4,3-a]pyridine] was run?
A: 50 to 100%

Q: For `COc1ccc(-c2nnc3ccc(-c4cccc(N(C)C)c4)cn23)cc1OC` [compound 185, 3-[3-(3,4-dimethoxyphenyl)-[1,2,4]triazolo[4,3-a]pyridin-6-yl]-N,N-dimethyl-aniline], which Emax is on record?
A: 50 to 100%

Q: Which Emax does the source give for `COc1ccc(-c2nnc3ccc(-c4ccc(S(C)(=O)=O)cc4)cn23)cc1OC` [compound 186, 3-(3,4-dimethoxyphenyl)-6-(4-methylsulfonylphenyl)-[1,2,4]triazolo[4,3-a]pyridine] here?
A: 10 to 20%

Q: Which Emax does the source give for `COc1ccc(-c2nnc3ccc(-c4cccc(F)c4)cn23)cc1OC` [compound 187, 3-(3,4-dimethoxyphenyl)-6-(3-fluorophenyl)-[1,2,4]triazolo[4,3-a]pyridine] here?
A: ≥ 100%

Q: `COc1ccc(-c2nnc3ccc(-c4cccc(C(=O)N(C)C)c4)cn23)cc1OC` [compound 188, 3-[3-(3,4-dimethoxyphenyl)-[1,2,4]triazolo[4,3-a]pyridin-6-yl]-N,N-dimethyl-benzamide] was tested. Which Emax did it give?
A: 50 to 100%

Q: With `COc1ccc(-c2nnc3ccc(C#Cc4ccncc4)cn23)cc1OC` [compound 190, 3-(3,4-dimethoxyphenyl)-6-[2-(4-pyridyl)ethynyl]-[1,2,4]triazolo[4,3-a]pyridine] as the compound, how does the Emax read?
A: 50 to 100%

Q: `COc1ccc(-c2nnc3ccc(-c4cccs4)cn23)cc1OC` [compound 191, 3-(3,4-dimethoxyphenyl)-6-(2-thienyl)-[1,2,4]triazolo[4,3-a]pyridine] was tested. Which Emax did it give?
A: 50 to 100%

Q: With `COc1cncc(-c2ccc3nnc(-c4cccc(OC(F)(F)F)c4)n3c2)c1` [compound 192, 6-(5-methoxy-3-pyridyl)-3-[3-(trifluoromethoxy)phenyl]-[1,2,4]triazolo[4,3-a]pyridine] as the compound, how does the Emax read?
A: 50 to 100%

Q: For `CS(=O)(=O)c1cccc(-c2ccc3nnc(-c4cccc(OC(F)(F)F)c4)n3c2)c1` [compound 193, 6-(3-methylsulfonylphenyl)-3-[3-(trifluoromethoxy)phenyl]-[1,2,4]triazolo[4,3-a]pyridine], which Emax is on record?
A: 50 to 100%

Q: With `COc1cccc(C#Cc2ccc3nnc(-c4cccc(OC(F)(F)F)c4)n3c2)c1` [compound 194, 6-[2-(3-methoxyphenyl)ethynyl]-3-[3-(trifluoromethoxy)phenyl]-[1,2,4]triazolo[4,3-a]pyridine] as the compound, how does the Emax read?
A: 20 to 50%

Q: With `FC(F)(F)Oc1cccc(-c2nnc3ccc(-c4cccs4)cn23)c1` [compound 195, 6-(2-thienyl)-3-[3-(trifluoromethoxy)phenyl]-[1,2,4]triazolo[4,3-a]pyridine] as the compound, how does the Emax read?
A: 50 to 100%

Q: For `FC(F)(F)Oc1cccc(-c2nnc3ccc(C#Cc4ccccc4)cn23)c1` [compound 196, 6-(2-phenylethynyl)-3-[3-(trifluoromethoxy)phenyl]-[1,2,4]triazolo[4,3-a]pyridine], which Emax is on record?
A: 20 to 50%

Q: For `Nc1cccc(-c2ccc3nnc(-c4cccc(Cl)c4)n3c2)c1` [compound 197, 3-[3-(3-chlorophenyl)-[1,2,4]triazolo[4,3-a]pyridin-6-yl]an iline], which Emax is on record?
A: 50 to 100%

Q: Which Emax does the source give for `Clc1cccc(-c2nnc3ccc(-c4ccc5c(c4)OCO5)cn23)c1` [compound 198, 6-(1,3-benzodioxol-5-yl)-3-(3-chlorophenyl)-[1,2,4]triazolo[4,3-a]pyridine] here?
A: 50 to 100%
